From US5304125A, “Apparatus for administering solid particulate aerosols to the lungs” (priority 1993, dated 1994)
Where a name gives a salt, the structure may show the parent alone.

Key:
[1] = system: Na^+ transport rates by cystic fibrosis airway epithelia; assay: Ussing chamber bioassay of Na+ transport (short circuit current) in freshly excised human cystic fibrosis airway epithelia; format: cell-based
Source text: Freshly excised human cystic fibrosis airway […] used to assay bioactive amiloride in solution. Freshly excised tissues is obtained from the Operating Room at The University of North Carolina Hospitals as previously described. R. Boucher, M. Stutts, M. Knowles, L. Cantley, and J. Gatzy, Na+ transport in cystic fibrosis respiratory epithelia. Abnormal basal rate and response to adenylate cyclase activation. J. Clin. Invest. 78, 1245-1252 (1986). The tissue preparation is mounted in a minature Ussing chamber that has 6 ml of solution bathing each (mucosal; basolateral) surface of the preparation. The solution is a Krebs-Ringer bicarbonate solution which approximates the ionic composition of plasma. This solution is warmed (37°) and circulated with a gas lift (95% oxygen, 5% CO2) system. Mixing time in this chamber has been previously measured by calibration with dyes (blue dextran) and is five seconds or less. The measurement of sodium transport rates is performed using a voltage clamp that is interfaced to the tissue preparation by pairs of potential sensing electrodes and current passing electrodes. The current required to null the transepithelial potential difference to zero is the short circuit current, which in human airway tissue is an accurate index of sodium transport rates. See R. Boucher et al., supra. […] This experiment was conducted as described above. […]

[2] = Fate/dose of aerosolized amiloride (respirable, oropharyngeal, systemic) from Spinhaler or MDI in throat/Andersen impactor apparatus
Experimental: The present invention was tested using two devices that generate dry particle aerosols, the Spinhaler™ from Fisons, Inc., See Bell, J. Pharm. Sci. 60, 1559 (1971); Cox, Brit. Med. J. 2, 634 (1969), and the metered-dose inhaler (MDI). The Spinhaler™ consists of a rotor that holds a gelatin capsule containing the dry amiloride powder. After the capsule is pierced, the patient inhales through the mouthpiece causing the rotor to spin and vibrate at a high speed, dispensing and dispersing the drug. The MDI consists of a pressurized canister containing the drug, the propellant, and a surfactant. When activated, the MDI spray disperses the drug within large droplets of propellant into a spacer. Evaporation of the propellant and sedimentation of the larger particles yield dry drug that is inhaled by the patient.
(§1) FIG. 6 is a drawing of the experimental apparatus used in these studies. For the Spinhaler™ tests, lactose was used as a flow aid to dispense amiloride from the capsules. Before use, the lactose was not micronized, but was shaken through a 400 mesh sieve so that all lactose particles used were smaller than 37 μm. Amiloride was then mixed with the lactose in a 1:1 ratio and the material was reshaken through the 400 mesh sieve to break apart any agglomerates. Then 58 mg of the resieved mixture of amiloride and lactose was placed in capsule with pre-drilled holes and loaded into the Spinhaler™. Air at 60 liters per minute (Lpm) flowed in succession through the aerosol generator 60 (a Spinhaler™), an impactor 10 as described in connection with FIGS. 1-4 above, a glass "throat" 61, and a plastic "distal pharynx" 62. Within the distal pharynx an isokinetic sample at 28.3 Lpm flowed through a nozzle 63 and into an Andersen impactor 64. The remaining 31.7 Lpm of the original 60 Lpm was drawn off through a bypass line 65 that led to a filter 66, a rotameter 67, and to a vacuum (not illustrated). Gas that left the Andersen impactor flowed through a filter 68 to a second rotameter 69 to vacuum. To conduct a test, vacuum was applied simultaneously to both the Andersen impactor and the bypass lines. Air flow at 60 Lpm was maintained for four seconds to simulate an inspiration; six inspirations were used for each capsule of drug tested.
Amiloride used with the MDI was first milled until essentially all particles were smaller than 2.6 μm in diameter as determined using an optical microscope. This amiloride was then packaged in an MDI with Freon propellants (trichlorofluoromethane and dichlorodifluoromethane) and a surfactant (sorbitan trioleate), added to break up droplets or aggregates of solid particles. A Nebuhaler™ spacer 27 cm long, (see Newman, 39 Thorax 935 (1984)), was attached to the MDI to allow evaporation of the propellant and to remove larger particles by sedimentation. Prior to each release of drug from the MDI, the canister was shaken vigorously to achieve homogeneity. In each test, the MDI aerosol was dispersed into the spacer via a 50 μl metering valve designed to deliver 1 mg amiloride per puff; however, the actual delivery was closer to 3 mg/puff as determined by spectrophotometric analysis of all amiloride collected as discussed below. Leakage of some liquid from the MDI canisters between the filling time and the actual usage would have increased the concentration of amiloride without affecting internal canister pressure. Following the dispersion and a one second delay, vacuum was applied to both the Andersen impactor and bypass lines and maintained for four seconds. This procedure was repeated for a total of six aerosol puffs from the MDI for each test The MDI tests, like the Spinhaler™ tests, used a total flow of 60 Lpm; 28.3 to the Andersen impactor and […] through the bypass line.
Tests were conducted with the MDI and spacer both with and without the impactor. […]

[3] = system: luminal membrane of airway epithelia; conditions: applied to the luminal membrane of airway epithelia; cited from earlier work
[4] = Aerosol size distribution (Andersen impactor); format: physicochemical; conditions: 60 Lpm
Experimental: as §1, with “SpinhalerTM” for “Spinhaler™”, “reshaken” left out, “resieved” left out, “SpinhalerTM.” for “Spinhaler™.”, “SpinhalerTM),” for “Spinhaler™),”, “tested. […] This amiloride was then packaged in an MDI with Freon propellants (trichlorofluoromethane and dichlorodifluoromethane) and a surfactant (sorbitan trioleate), added to break up droplets or aggregates of solid particles. A NebuhalerTM spacer 27 cm long, (see Newman, 39 Thorax 935 (1984)), was attached to the MDI to allow evaporation of the propellant and to remove larger particles by sedimentation. Prior to each release of drug from the MDI, the canister was shaken vigorously to achieve homogeneity. […] Leakage of some liquid from the MDI canisters between the filling time and the actual usage would have increased the concentration of amiloride without affecting internal canister pressure. […] The fractional efficiency of the impactor was determined by comparing the mass of amiloride collected on each stage of the Andersen impactor with and without the impactor in place. […] The components analyzed for amiloride included the SpinhalerTM and its used capsule, the NebuhalerTM spacer when used, the impactor when used, the glass throat, the distal pharynx, and the sidearm filter, plus the entry nozzle, six individual plates, and final filter of the Andersen impactor. Washes from each of these components were then analyzed for amiloride. […]” for “tested.”

[5] = in vivo
cystic fibrosis = conditions: liquid aerosol; Knowles, N. Engl. J. Med. (1990); cited from earlier work

Row | SMILES | time to complete inhibition of ISC (Na^+ transport) ([1]; Krebs-Ringer bicarbonate, 37°, human CF airway epithelia, dry powder particle size about 1 μm) | timed release effect (dissolution of solid particles) ([1]; respirable particles ~1 μm, aqueous solution approximating the ionic strength of plasma) | oropharyngeal deposition, fraction of generated amiloride [2] [%] | systemic dose relative to maximum [2] [mg/day] | total systemic daily dose [2] [mg] | oropharyngeal deposition (in words) ([2]; MDI or Spinhaler without spacer or impactor) | systemic dose relative to maximum (in words) ([2]; MDI with spacer alone, 12 mg/day respirable) | oropharyngeal dose (in words) ([2]; Spinhaler alone) | systemic dose (in words) ([2]; Spinhaler alone) | oropharyngeal deposition (in words) ([2]; with spacer or impactor, most particles larger than about 5 μm removed) | inhibition of Na^+ and water absorption [3] | mass median diameter (mmd) ([4]; MDI with spacer and impactor) | mass median diameter (mmd) ([4]; MDI with spacer, no impactor) | mass median diameter (mmd) ([4]; Spinhaler alone) [um] | mass median diameter (mmd) ([4]; Spinhaler with impactor) | maximum systemic dose [5] [mg daily] | optimal respirable dose [5] [mg daily] | clinical benefit (cystic fibrosis)
1 | N=C(N)NC(=O)c1nc(Cl)c(N)nc1N [amiloride hydrochloride] | about sixty | dissolved slowly over time | – | – | – | – | – | – | – | – | – | – | – | – | – | – | – | –
2 | N=C(N)NC(=O)c1nc(Cl)c(N)nc1N [amiloride] | – | – | 1.6 | ≤ 20 | 16.7 | high | somewhat higher than the maximum | far too high | excessive | decreases substantially | inhibit Na^+ and water absorption | about 3 um | about 6 um | > 10 | about 4 um | 20 | 8 to 12 | confirmed clinical benefit
